These results are taken from ChEMBL document CHEMBL1126797 (J Med Chem, 1993).

In data set [1] the test system is Mus musculus. The data set can be described thus: Relative survival in RAW117-H10 cells implanted mice in comparison to control at dose of 3 mg/kg. The data set is classed as functional.
The test system of data set [2] is Mus musculus. The data set can be described thus: Highest active dose in L1210 lymphoid leukemic mice at dose range of 2-4 mg/kg. The data set is classed as functional.
For data set [3], the species on record is Mus musculus. Nature of the data set: Percent median survival time of treated leukemic mice compared to control. The data set is classed as functional.
Data set [4] relates to Mus musculus. Nature of the data set: Relative survival in L1210 lymphoid leukemic mice after subcutaneous administration on days 1,4,6,8 at dose of 3 mg/kg. In kind it is functional.
The species entered for data set [5] is Mus musculus. Nature of the data set: Number of L1210 lymphoid leukemic mice cured out of […]. In kind it is functional.
For data set [6], the system named is L1210. Nature of the data set: Log of initial tumor cell population minus log of tumor cell population at end of treatment in L1210 lymphoid leukemic mice. In kind it is functional, Mus musculus.
The species named for data set [7] is Mus musculus. Nature of the data set: Toxic dose in L1210 lymphoid leukemic mice. Particulars: in vivo; call rule not given here. The data set is classed as toxicity, organism-based.
Data set [8] in a line: Number of metastases in K1735-M2 murine melanoma cells after subcutaneous administration on days1,4,6,8 at dose of 3 mg/kg. In kind it is functional, Mus musculus.
The species entered for data set [9] is Mus musculus. Nature of the data set: Toxic dose to L1210 lymphoid leukemic mice. The settings on record: in vivo. The data set is classed as toxicity, organism-based.
In data set [10] the test system is Mus musculus. The data set can be described thus: Highest active dose in L1210 lymphoid leukemic mice at range of 5-20 mg/kg. In kind it is functional.
For data set [11], the system named is Mus musculus. The data set can be described thus: Highest active dose in L1210 lymphoid leukemic mice at dose of 5.3-12 mg/kg. In kind it is functional.
Data set [12] relates to L1210. Nature of the data set: Log of initial tumor cell population minus log of tumor cell population at end of treatment after i.v. drug dosing on hours 1 and 5. The data set is classed as functional, Mus musculus.
Data set [13] relates to L1210. Nature of the data set: Toxic dose in L1210 murine lymphoid leukemia at 20 mg/kg after i.v. drug dosing on hours 1 and 5; NT means not toxic. In kind it is toxicity, organism-based. Also noted: dose 20 mg/kg, route intravenous. The settings on record: mouse, in vivo, iv.
Data set [14] has as its system Mus musculus. Nature of the data set: Highest active dose in L1210 lymphoid leukemic mice at range of 1.25-20 mg/kg after i.v. drug dosing on hours 1 and 5. The data set is classed as functional.
Data set [15] relates to Mus musculus. Nature of the data set: Number of L1210 mice cured after i.v. drug dosing on hours 1 and 5. The data set is classed as functional.
Data set [16] deals with Mus musculus. The data set can be described thus: Highest active dose in L1210 lymphoid leukemic mice at range of 1.35-3.74 mg/kg. The data set is classed as functional.
Data set [17] has as its target T1, DNA topoisomerase 1 (Homo sapiens, UniProt P11387).
T1 sequence (P11387 whole entry): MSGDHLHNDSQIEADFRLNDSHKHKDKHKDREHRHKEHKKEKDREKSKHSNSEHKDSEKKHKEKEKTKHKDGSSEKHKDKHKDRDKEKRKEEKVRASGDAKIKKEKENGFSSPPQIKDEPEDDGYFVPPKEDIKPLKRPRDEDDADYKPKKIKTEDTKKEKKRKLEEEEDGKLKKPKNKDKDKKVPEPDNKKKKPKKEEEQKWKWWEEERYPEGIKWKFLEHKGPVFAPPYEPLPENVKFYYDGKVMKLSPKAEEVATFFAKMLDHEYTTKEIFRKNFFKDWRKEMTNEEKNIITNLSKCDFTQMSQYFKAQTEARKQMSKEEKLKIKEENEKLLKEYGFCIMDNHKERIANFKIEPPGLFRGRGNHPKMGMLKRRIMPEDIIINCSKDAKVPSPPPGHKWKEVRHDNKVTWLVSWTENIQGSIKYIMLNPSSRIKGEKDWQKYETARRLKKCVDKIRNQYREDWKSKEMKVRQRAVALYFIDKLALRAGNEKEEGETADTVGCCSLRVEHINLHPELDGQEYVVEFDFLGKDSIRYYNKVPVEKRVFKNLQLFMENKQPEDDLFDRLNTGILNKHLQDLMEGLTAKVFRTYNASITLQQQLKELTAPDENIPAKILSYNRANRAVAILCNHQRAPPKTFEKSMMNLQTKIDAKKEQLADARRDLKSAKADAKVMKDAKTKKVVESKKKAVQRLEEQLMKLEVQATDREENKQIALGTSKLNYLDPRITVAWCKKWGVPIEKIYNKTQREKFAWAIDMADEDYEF
Nature of the data set: Inhibition of Topoisomerase I by cleavage complex formation in intact human HL-60 cells. In kind it is cell-based.

Data set [18] concerns the target T1, DNA topoisomerase 1. The data set can be described thus: Inhibition of Topoisomerase I by cleavage complex formation in human HL-60 cells. The data set is classed as cell-based.
The test system of data set [19] is L1210. The data set can be described thus: Toxic dose in L1210 murine lymphoid leukemia at dose of 20 mg/kg after i.v. drug dosing on hours 1 and 5; NT means not toxic. In kind it is toxicity, organism-based. Also noted: dose 20 mg/kg, route intravenous. Particulars: mouse, in vivo, iv.
In data set [20] the test system is Mus musculus. The data set can be described thus: Highest active dose in L1210 lymphoid leukemic mice after i.v. drug dosing on hours 1 and 5 at dose range of 1.25-20 mg/kg. The data set is classed as functional.
Data set [21] deals with Mus musculus. Nature of the data set: Median survival time of treated/control animals x 100 after i.v. drug dosing on hours 1 and 5. The data set is classed as functional.
Data set [22] concerns Mus musculus. The data set can be described thus: Median survival time of treated/control animals x 100 after iv drug dosing on hours 1 and 5. The data set is classed as functional.
Data set [23] has as its system Mus musculus. Nature of the data set: Highest active dose in L1210 lymphoid leukemic mice after iv drug dosing on hours 1 and 5 at dose range of 2.5-5 mg/kg. The data set is classed as functional.
The test system of data set [24] is L1210. Nature of the data set: Toxic dose in L1210 murine lymphoid leukemia after ip injection on days 1 and 5 at 10 mg/kg; NT means not toxic. In kind it is toxicity, organism-based. Set-up: dose 10 mg/kg, route intraperitoneal. Particulars: mouse, in vivo.
Data set [25] relates to Mus musculus. Nature of the data set: Highest active dose in L1210 lymphoid leukemic mice after ip injection on days 1 and 5 at dose of 10 mg/kg. The data set is classed as functional. Particulars: route intraperitoneal.
Data set [26] has as its system L1210. Nature of the data set: Log of initial tumor cell population minus log of tumor cell population at end of treatment after iv drug dosing on hours 1 and 5. In kind it is functional, Mus musculus.
In data set [27] the test system is Mus musculus. Nature of the data set: Median survival time of treated/control animals x 100 after ip injection on days 1 and 5. In kind it is functional.
Data set [28] concerns L1210. Nature of the data set: Log of initial tumor cell population minus log of tumor cell population at end of treatment after ip injection on days 1 and 5. The data set is classed as functional, Mus musculus.
For data set [29], the system named is L1210. The data set can be described thus: Toxic dose in L1210 murine lymphoid leukemia after iv drug dosing on hours 1 and 5; NT means not toxic at 5 mg/Kg. In kind it is toxicity, organism-based. Particulars: mouse, in vivo.
For data set [30], the system named is L1210. The data set can be described thus: Toxic dose in L1210 murine lymphoid leukemia after i.v. drug dosing on hours 1 and 5; NT means not toxic at 20 mg/kg. In kind it is toxicity, organism-based. Set-up: dose 20 mg/kg, route intravenous. Particulars: mouse, in vivo, iv.

A word on the IC50: it is the concentration that inhibits the measured activity by half.

In the case of `CCC1(O)C(=O)OCc2c1cc1n(c2=O)Cc2cc3cc4c(cc3nc2-1)OCO4` (racemic), the figures for the T/C in data set [1], in [3] and in data set [4] were 1.04, 325% and 1.22, respectively. Also, in data set [2], the Highest active dose turned out to be 2 mg/kg. Moreover, the Cures in data set [5] is given as 2. In data set [6], this compound had a KE of 5.97. In data set [7], this compound gave a Toxic dose of 8 mg/kg. Besides, in data set [8], the Control is given as 65%.
The compound `CCC1(O)C(=O)OCc2c1cc1n(c2=O)Cc2cc3cc(Cl)ccc3nc2-1` (racemic) displayed a Toxic dose in data set [9] of 40 mg/kg. The compound further gave a T/C in [3] of 280%. In data set [5], the Cures is recorded as 2. Besides, the KE in data set [6] stood at 5.97. In [10], this compound had a Highest active dose of 10 mg/kg.
Consider `CC[C@@]1(O)C(=O)OCc2c1cc1n(c2=O)Cc2cc3ccccc3nc2-1` [CAMPTOTHECIN], for which the Highest active dose in [11] is 12 mg/kg. For the same compound, the T/C in [3] came to 250%. The compound also had a Cures in [5] of 1. The KE in data set [6] came to 4.8. This compound also had a Toxic dose in [7] of 10 mg/kg.
As to `CCC1(OC(=O)CN)C(=O)OCc2c1cc1n(c2=O)Cc2cc3cc(N)ccc3nc2-1.Cl` (racemic), the T/C in [3] is recorded as 225%. This compound displayed a KE in [12] of over 5.97. Besides, in data set [13], the Toxic dose entry is listed as “Non-toxic”. This compound displayed a Highest active dose in [14] of 20 mg/kg. In addition, the Cures in data set [15] was 0.
The compound `CCC1(O)C(=O)OCc2c1cc1n(c2=O)Cc2cc3cc(N)ccc3nc2-1` (racemic) yielded a T/C in data set [3] of 365%. Besides, in [5], the Cures came to 3. In data set [6], this compound displayed a KE of 5.97. For the same compound, the Toxic dose in data set [7] came out at 6.25 mg/kg. In [16], this compound gave a Highest active dose of 3.75 mg/kg.
For the compound `CCC1(O)C(=O)OCc2c1cc1n(c2=O)Cc2cc3c(NC(=O)CN)cccc3nc2-1.Cl` (racemic), the figures for the IC50 in data set [17] and in data set [18] were over 30 µM and 0.57 µM, respectively. The Toxic dose result in data set [19] was “Non-toxic”. The compound also registered a KE in data set [12] of 2.95. Moreover, the Highest active dose in data set [20] is 20 mg/kg. Further, the Cures in data set [15] is reported as 0. Further, the T/C in data set [21] amounted to 180%.
Take `CCC1(OC(=O)CN)C(=O)OCc2c1cc1n(c2=O)Cc2cc3c(N)cccc3nc2-1.Cl` (racemic): the figures for the 50% inhibitory concentration (IC50) in data set [17] and in data set [18] were 6.8 µM and 5.5 µM, respectively. Also, the T/C in data set [22] turned out to be 168%; in data set [27], 132%. The Highest active dose in data set [23] amounted to 5 mg/kg; in data set [25], 10 mg/kg. The Toxic dose result is “Non-toxic” in data set [24] and “Not toxic” in [29]. The KE was 1.67 in [26] and -1 in data set [28].
Consider `CCC1(OC(=O)CN)C(=O)OCc2c1cc1n(c2=O)Cc2cc3cc4c(cc3nc2-1)OCO4.Cl` (racemic), for which the half-inhibitory concentration (IC50) was 2.5 µM in data set [17] and 0.43 µM in [18]. Further, the Toxic dose entry in data set [30] was “Not toxic”. Besides, the T/C in data set [3] was 236%. Besides, the KE in [12] worked out at 5.97. In addition, the Highest active dose in data set [20] was 10 mg/kg. The compound further came in with a Cures in [15] of 3.
